Source: paper PMC8348310, “Antioxidants Isolated from Elaeagnus umbellata (Thunb.) Protect against Bacterial Infections and Diabetes in Streptozotocin-Induced Diabetic Rat Model” (Molecules, 2021)
≈ marks a conversion by molar mass, not a printed value.

Columns and labels:
[1] = test system: Staphylococcus aureus; assay: Broth dilution MIC determination; assay type: cell-based; conditions: 37 °C, 24 h, read-out: Minimum Inhibitory Concentrations
Experimental: Stock solutions of morin, phloroglucinol, and 1-hexyl benzene were prepared in dimethylsulphoxide (DMSO). […] Sterile centrifuge tubes were arranged in sets of rows for each bacterial inoculum to cover the different concentration of isolated compounds in triplicate. […] A sterility control tube and a growth control tube were also incubated (for each strain). The tubes were incubated at 37 °C for 24 h. After incubation, 40 μL of a 0.4 mg/mL solution of para iodonitrotetrazolium (INT) chloride was added to each tube as an indicator of microbial growth. […] The evaluation for the inhibition of microbial growth was based on the color change of INT to pink, while no color change indicates the absence of growth. The MIC is the lowest concentration of the compounds at which there is no visible growth in the tubes. The concentration that inhibited bacterial growth completely (the first clear tube) was taken as the MIC value. Experiments were performed in triplicate and mean values are presented. […] A negative control experiment was conducted using only DMSO.

[2] = test system: Salmonella typhi; assay: Broth dilution MIC determination; assay type: cell-based; conditions: Salmonella enterica, 24 h, read-out: Minimum Inhibitory Concentrations
[3] = test system: Klebsiella pneumonia; assay: Broth dilution MIC determination; assay type: cell-based; conditions: Klebsiella pneumoniae, 37 °C, 24 h, read-out: Minimum Inhibitory Concentrations
Experimental: (§1) Antibacterial potential of isolated compound was investigated against both Gram-positive and Gram-negative bacterial strains; Escherichia coli, Bacillus cereus, Salmonella typhi, Klebsiella pneumonia, Pseudomonas aeruginosa and Proteus mirabilis. Bacterial strains were provided by the Department of Pharmacy, University of Malakand, Khyber Pakhtunkhwa, Pakistan, and were kept at 4 °C in agar slants in freeze-dried condition until further use.
(§2) Both Gram-positive and Gram-negative bacterial strains Escherichia coli, Bacillus cereus, Salmonella typhi, Klebsiella pneumonia, Pseudomonas aeruginosa and Proteus mirabilis organism viable count per mL in the stock suspension was determined using surface viable counting technique. About 10^8–10^9 colony-forming units (CFU) per mL were used as inoculum in subsequent experiments. A fresh stock suspension was used each time.
(§3) Minimum inhibitory concentrations (MICs) of morin, phloroglucinol, and 1-hexyl benzene were determined using broth dilution method, following the Clinical and Laboratory Standards Institute (CLSI) guidelines. Stock solutions of morin, phloroglucinol, and 1-hexyl benzene were prepared in dimethylsulphoxide (DMSO). The serial dilutions from the stock solution were made ranging from 500 to 3.90 μg/mL using Mueller–Hinton broth. Sterile centrifuge tubes were arranged in sets of rows for each bacterial inoculum to cover the different concentration of isolated compounds in triplicate. The standard bacterial stock suspension 10^8–10^9 CFU/mL, in 100 μL were inoculated into each tube. A sterility control tube and a growth control tube were also incubated (for each strain). The tubes were incubated at 37 °C for 24 h. After incubation, 40 μL of a 0.4 mg/mL solution of para iodonitrotetrazolium (INT) chloride was added to each tube as an indicator of microbial growth. […] The evaluation for the inhibition of microbial growth was based on the color change of INT to pink, while no color change indicates the absence of growth. The MIC is the lowest concentration of the compounds at which there is no visible growth in the tubes. The concentration that inhibited bacterial growth completely (the first clear tube) was taken as the MIC value. Experiments were performed in triplicate and mean values are presented.
(§4) In order to, determine the sensitivity of the bacterial strains, positive control experiments were conducted, taking ampicillin at a starting concentration of 0.10 mg/mL in sterile water while the final concentrations for these experiments ranged from 25.00 to 0.19 μg/mL. A negative control experiment was conducted using only DMSO.

[4] = test system: Proteus mirabilis; assay: Broth dilution MIC determination; assay type: cell-based; conditions: 37 °C, 24 h, read-out: Minimum Inhibitory Concentrations
Experimental: as §1, §2, §3, §4

[5] = test system: Bacillus cereus; assay: Broth dilution MIC determination; assay type: cell-based; conditions: 37 °C, 24 h, read-out: Minimum Inhibitory Concentrations
Experimental: as §1, §2, §3, §4

[6] = test system: Escherichia coli; assay: Broth dilution MIC determination; assay type: cell-based; conditions: 37 °C, 24 h, read-out: Minimum Inhibitory Concentrations
Experimental: as §1, §2, §3, §4

[7] = test system: Pseudomonas aeruginosa; assay: Broth dilution MIC determination; assay type: cell-based; conditions: 37 °C, 24 h, read-out: Minimum Inhibitory Concentrations
Experimental: as §1, §2, §3, §4

[8] = ABTS free radical scavenging assay; assay type: biochemical
Experimental: ABTS (2,2′-azinobis-3-ethylbenzothiazoline-6-sulfonic acid) free radicals inhibition potential were determined according to the reported assay. ABTS solution was prepared in methanol (100 mL). In total, 300 µL of compound (morin, phloroglucinol, and 1-hexyl benzene) was mixed thoroughly with 3.0 mL ABTS solution and incubated for six minutes. Finally, the absorbance was measured through UV spectrophotometer using ascorbic acid as positive control. Percent ABTS free radicals scavenging potential was calculated using the equation No. 1.
(§5) All the in vitro and in vivo experiments were analyzed in three replicates and determined as mean ± SEM. Student’s t-test and one way ANOVA followed by Dunnett’s post hoc multiple comparison test was used. p ≤ 0.05 were considered as significant. Linear regression analysis was used to calculate the IC50 value for % DPPH, ABTS, α-amylase, and α-glucosidase inhibition against the different concentrations of the test samples by means of Excel program 2007.

[9] = DPPH free radical scavenging assay; assay type: biochemical
Experimental: According to the Brand-Williams assay DPPH (2, 2-diphenyl-1-picrylhydrazyl) free radical scavenging activity of morin was determined. DPPH and compounds stock solutions (1 mg/mL) were prepared in 100 mL methanol with serial dilutions of […], 62.5, 250, 500, and 1000 µg/mL. After that, 0.1 mL morin was mixed with 3.0 mL DPPH solution and incubated at 23 °C for 30 min. Standard ascorbic acid solution was also prepared in the same way using as a positive control. Finally, absorbance was measured at 517 nm via UV spectrophotometer. Results were taken in a set of three experiments and represented as mean ± SEM. Percent free radicals scavenging potential was calculated according to the following Equation (1): (1) % Free radicals Scavenging potential = Blank sample absorbance−sample absorbance/Blank sample absorbance×100
as §5

[10] = DPPH free radical scavenging assay; assay type: biochemical; conditions: 125 µg/mL
[11] = 1000 µg/mL, listed as ascorbic acid
[12] = linear regression of % scavenging vs concentration

## CC1(C)S[C@@H]2[C@H](NC(=O)[C@H](N)c3ccccc3)C(=O)N2[C@H]1C(=O)O [Ampicillin, ampicillin, reference compound]
[1]
  MIC: 1.4 ± 0.5 µg/mL (≈ 4.01 µM)
[2]
  MIC: 1.8 ± 0.1 µg/mL (≈ 5.15 µM)
[3]
  MIC: 1.9 ± 1.2 µg/mL (≈ 5.44 µM)
[4]
  MIC: 1.9 ± 1.1 µg/mL (≈ 5.44 µM)
[5]
  MIC: 1.6 µg/mL (≈ 4.58 µM)
[6]
  MIC: 1 ± 0.1 µg/mL (≈ 2.86 µM)
[7]
  MIC: 1.2 ± 0.5 µg/mL (≈ 3.43 µM)

## O=C1O[C@H]([C@@H](O)CO)C(O)=C1O [Ascorbic acid, ascorbic acid, reference compound]
[8]; 31.05 µg/mL
  % ABTS Scavenging Mean ± SEM: 56 ± 1.1%
[8]; 62.5 µg/mL
  % ABTS Scavenging Mean ± SEM: 64 ± 1.0%
[8]; 125 µg/mL
  % ABTS Scavenging Mean ± SEM: 70 ± 0.5%
[8]; 250 µg/mL
  % ABTS Scavenging Mean ± SEM: 78 ± 0.5%
[8]; 500 µg/mL
  % ABTS Scavenging Mean ± SEM: 84 ± 1.1%
[8]; 1000 µg/mL
  % ABTS Scavenging Mean ± SEM: 90 ± 0.5%
[8]; [11]
  % ABTS Scavenging Mean ± SEM: 85 ± 0.5%
[8]; [12]
  ABTS IC50: 32 µg/mL
[9]; 31.05 µg/mL
  % DPPH Scavenging Mean ± SEM: 69 ± 0.4%
[9]; 62.5 µg/mL
  % DPPH Scavenging Mean ± SEM: 73 ± 0.5%
[9]; 250 µg/mL
  % DPPH Scavenging Mean ± SEM: 80 ± 0.4%
[9]; 500 µg/mL
  % DPPH Scavenging Mean ± SEM: 86 ± 1.0%
[9]; 1000 µg/mL
  % DPPH Scavenging Mean ± SEM: 91 ± 0.5%
[9]; [11]
  % DPPH Scavenging Mean ± SEM: 86 ± 0.5%
[9]; [12]
  DPPH IC50: 29 µg/mL
[10]
  % DPPH Scavenging Mean ± SEM: 77 ± 0.4%
